tested on: not listed separately; assay: Ratio of drug uptake in frontal lobe to cerebellum in anesthetized cynomolgus monkey after 235 mins postinjection; type: ADME, organism-based, Macaca fascicularis; conditions: in vivo

Q: For O=C(OCCC[18F])C1C2CCC(CC1c1cccc(/C=C\Br)c1)N2 (centres undefined), which Ratio is on record?
A: 1.1

tested on: not listed separately; assay: Drug uptake in anesthetized cynomolgus monkey brain frontal lobe after 15.5 mins postinjection; type: ADME, organism-based, Macaca fascicularis; conditions: in vivo

Q: With O=C(OCCC[18F])C1C2CCC(CC1c1cccc(/C=C\Br)c1)N2 (centres undefined) as the compound, how does the Drug uptake read?
A: 3.38

tested on: not listed separately; assay: Drug uptake in anesthetized cynomolgus monkey brain occipital lobe after 125 mins postinjection; type: ADME, organism-based, Macaca fascicularis; conditions: in vivo

Q: Which Drug uptake does the source give for O=C(OCCC[18F])C1C2CCC(CC1c1cccc(/C=C\Br)c1)N2 (centres undefined) here?
A: 3.64

tested on: Midbrain; assay: Drug uptake in anesthetized cynomolgus monkey brain midbrain after 65 mins postinjection; type: ADME, organism-based, Macaca fascicularis; design: unit not given here; conditions: in vivo

Q: Which Drug uptake does the source give for O=C(OCCC[18F])C1C2CCC(CC1c1cccc(/C=C\Br)c1)N2 (centres undefined) here?
A: 6.06

tested on: Putamen; assay: Drug uptake in anesthetized cynomolgus monkey brain putamen after 105 mins postinjection; type: ADME, organism-based, Macaca fascicularis; design: unit not given here; conditions: in vivo, 1.75 h

Q: Which Drug uptake does the source give for O=C(OCCC[18F])C1C2CCC(CC1c1cccc(/C=C\Br)c1)N2 (centres undefined) here?
A: 5.21

tested on: Pons; assay: Drug uptake in anesthetized cynomolgus monkey brain pons after 155 mins postinjection; type: ADME, organism-based, Macaca fascicularis; conditions: in vivo

Q: Which Drug uptake does the source give for O=C(OCCC[18F])C1C2CCC(CC1c1cccc(/C=C\Br)c1)N2 (centres undefined) here?
A: 4.03

tested on: Medulla; assay: Drug uptake in anesthetized cynomolgus monkey brain medulla after 115 mins postinjection; type: ADME, organism-based, Macaca fascicularis; conditions: in vivo

Q: With O=C(OCCC[18F])C1C2CCC(CC1c1cccc(/C=C\Br)c1)N2 (centres undefined) as the compound, how does the Drug uptake read?
A: 5.07

tested on: not listed separately; assay: Drug uptake in anesthetized cynomolgus monkey brain cerebellum after 175 mins postinjection; type: ADME, organism-based, Macaca fascicularis; conditions: in vivo

Q: For O=C(OCCC[18F])C1C2CCC(CC1c1cccc(/C=C\Br)c1)N2 (centres undefined), which Drug uptake is on record?
A: 2.45

tested on: Medulla; assay: Drug uptake in anesthetized cynomolgus monkey brain medulla after 165 mins postinjection; type: ADME, organism-based, Macaca fascicularis; conditions: in vivo, 2.75 h

Q: For O=C(OCCC[18F])C1C2CCC(CC1c1cccc(/C=C\Br)c1)N2 (centres undefined), which Drug uptake is on record?
A: 4.42

tested on: Midbrain; assay: Drug uptake in anesthetized cynomolgus monkey brain midbrain after 135 mins postinjection; type: ADME, organism-based, Macaca fascicularis; conditions: in vivo, 2.25 h

Q: With O=C(OCCC[18F])C1C2CCC(CC1c1cccc(/C=C\Br)c1)N2 (centres undefined) as the compound, how does the Drug uptake read?
A: 5.36

tested on: not listed separately; assay: Ratio of drug uptake in occipital lobe to cerebellum in anesthetized cynomolgus monkey after 235 mins postinjection; type: ADME, organism-based, Macaca fascicularis; conditions: in vivo

Q: With O=C(OCCC[18F])C1C2CCC(CC1c1cccc(/C=C\Br)c1)N2 (centres undefined) as the compound, how does the Ratio read?
A: 1.4

tested on: not listed separately; assay: Ratio of drug uptake in medulla to cerebellum in anesthetized cynomolgus monkey after 135 mins postinjection; type: ADME, organism-based, Macaca fascicularis; conditions: in vivo, 2.25 h

Q: With O=C(OCCC[18F])C1C2CCC(CC1c1cccc(/C=C\Br)c1)N2 (centres undefined) as the compound, how does the Ratio read?
A: 1.7

tested on: not listed separately; assay: Ratio of drug uptake in putamen to cerebellum in anesthetized cynomolgus monkey after 65 mins postinjection; type: ADME, organism-based, Macaca fascicularis; conditions: in vivo

Q: For O=C(OCCC[18F])C1C2CCC(CC1c1cccc(/C=C\Br)c1)N2 (centres undefined), which Ratio is on record?
A: 1.3

tested on: Thalamus; assay: Drug uptake in anesthetized cynomolgus monkey brain thalamus after 65 mins postinjection; type: ADME, organism-based, Macaca fascicularis; design: unit not given here; conditions: in vivo

Q: With O=C(OCCC[18F])C1C2CCC(CC1c1cccc(/C=C\Br)c1)N2 (centres undefined) as the compound, how does the Drug uptake read?
A: 5.39

tested on: not listed separately; assay: Ratio of drug uptake in occipital lobe to cerebellum in anesthetized cynomolgus monkey after 0.5 mins postinjection; type: ADME, organism-based, Macaca fascicularis; conditions: in vivo

Q: Which Ratio does the source give for O=C(OCCC[18F])C1C2CCC(CC1c1cccc(/C=C\Br)c1)N2 (centres undefined) here?
A: 1

tested on: Caudate; assay: Drug uptake in anesthetized cynomolgus monkey brain caudate after 27.5 mins postinjection; type: ADME, organism-based, Macaca fascicularis, Caudate nucleus; conditions: in vivo

Q: For O=C(OCCC[18F])C1C2CCC(CC1c1cccc(/C=C\Br)c1)N2 (centres undefined), which Drug uptake is on record?
A: 4.94

tested on: Midbrain; assay: Drug uptake in anesthetized cynomolgus monkey brain midbrain after 4.5 mins postinjection; type: ADME, organism-based, Macaca fascicularis; design: unit not given here; conditions: in vivo, 0.075 h

Q: For O=C(OCCC[18F])C1C2CCC(CC1c1cccc(/C=C\Br)c1)N2 (centres undefined), which Drug uptake is on record?
A: 3.08

tested on: not listed separately; assay: Drug uptake in anesthetized cynomolgus monkey brain cerebellum after 75 mins postinjection; type: ADME, organism-based, Macaca fascicularis; conditions: in vivo, 1.25 h

Q: For O=C(OCCC[18F])C1C2CCC(CC1c1cccc(/C=C\Br)c1)N2 (centres undefined), which Drug uptake is on record?
A: 4.02

tested on: Pons; assay: Drug uptake in anesthetized cynomolgus monkey brain pons after 12.5 mins postinjection; type: ADME, organism-based, Macaca fascicularis; conditions: in vivo

Q: For O=C(OCCC[18F])C1C2CCC(CC1c1cccc(/C=C\Br)c1)N2 (centres undefined), which Drug uptake is on record?
A: 4.51

tested on: Caudate; assay: Drug uptake in anesthetized cynomolgus monkey brain caudate after 12.5 mins postinjection; type: ADME, organism-based, Macaca fascicularis, Caudate nucleus; conditions: in vivo

Q: For O=C(OCCC[18F])C1C2CCC(CC1c1cccc(/C=C\Br)c1)N2 (centres undefined), which Drug uptake is on record?
A: 4.23

tested on: not listed separately; assay: Ratio of drug uptake in midbrain to cerebellum in anesthetized cynomolgus monkey after 22.5 mins postinjection; type: ADME, organism-based, Macaca fascicularis; conditions: in vivo, 0.375 h

Q: Which Ratio does the source give for O=C(OCCC[18F])C1C2CCC(CC1c1cccc(/C=C\Br)c1)N2 (centres undefined) here?
A: 1

tested on: Pons; assay: Drug uptake in anesthetized cynomolgus monkey brain pons after 125 mins postinjection; type: ADME, organism-based, Macaca fascicularis; conditions: in vivo

Q: With O=C(OCCC[18F])C1C2CCC(CC1c1cccc(/C=C\Br)c1)N2 (centres undefined) as the compound, how does the Drug uptake read?
A: 4.3

tested on: not listed separately; assay: Drug uptake in anesthetized cynomolgus monkey brain frontal lobe after 175 mins postinjection; type: ADME, organism-based, Macaca fascicularis; conditions: in vivo

Q: For O=C(OCCC[18F])C1C2CCC(CC1c1cccc(/C=C\Br)c1)N2 (centres undefined), which Drug uptake is on record?
A: 2.51

tested on: Medulla; assay: Drug uptake in anesthetized cynomolgus monkey brain medulla after 85 mins postinjection; type: ADME, organism-based, Macaca fascicularis; conditions: in vivo

Q: With O=C(OCCC[18F])C1C2CCC(CC1c1cccc(/C=C\Br)c1)N2 (centres undefined) as the compound, how does the Drug uptake read?
A: 5.41

tested on: not listed separately; assay: Drug uptake in anesthetized cynomolgus monkey brain cerebellum after 2.5 mins postinjection; type: ADME, organism-based, Macaca fascicularis; conditions: in vivo

Q: With O=C(OCCC[18F])C1C2CCC(CC1c1cccc(/C=C\Br)c1)N2 (centres undefined) as the compound, how does the Drug uptake read?
A: 1.41

tested on: not listed separately; assay: Ratio of drug uptake in caudate to cerebellum in anesthetized cynomolgus monkey after 155 mins postinjection; type: ADME, organism-based, Macaca fascicularis; conditions: in vivo

Q: Which Ratio does the source give for O=C(OCCC[18F])C1C2CCC(CC1c1cccc(/C=C\Br)c1)N2 (centres undefined) here?
A: 1.6

tested on: Caudate; assay: Drug uptake in anesthetized cynomolgus monkey brain caudate after 125 mins postinjection; type: ADME, organism-based, Macaca fascicularis, Caudate nucleus; conditions: in vivo

Q: With O=C(OCCC[18F])C1C2CCC(CC1c1cccc(/C=C\Br)c1)N2 (centres undefined) as the compound, how does the Drug uptake read?
A: 4.63

tested on: not listed separately; assay: Drug uptake in anesthetized cynomolgus monkey brain occipital lobe after 9.5 mins postinjection; type: ADME, organism-based, Macaca fascicularis; conditions: in vivo

Q: With O=C(OCCC[18F])C1C2CCC(CC1c1cccc(/C=C\Br)c1)N2 (centres undefined) as the compound, how does the Drug uptake read?
A: 3.77

tested on: not listed separately; assay: Drug uptake in anesthetized cynomolgus monkey brain cerebellum after 12.5 mins postinjection; type: ADME, organism-based, Macaca fascicularis; conditions: in vivo

Q: With O=C(OCCC[18F])C1C2CCC(CC1c1cccc(/C=C\Br)c1)N2 (centres undefined) as the compound, how does the Drug uptake read?
A: 5.72
